Marks after values point to notes of the source that are not given here.
How the values were obtained:
Format in all cases: in vivo, rat
[1] = system: osteoporosis model rats; test: Serum estrogen indicators (E2, FSH) by ELISA in osteoporosis model rats; details: bilateral ovariectomy female SD rats, intragastric once a day, 8 weeks, 10 mg/kg
Description: (§1) Samples: the traditional Chinese medicine (TCM) composition prepared in Example 1, a positive drug (Estradiol Valerate) and a competing drug (Caltrate).
(§2) Female SD rats were randomly divided into sham operation group, model group, positive control group (estradiol valerate), competing drug group (Caltrate), high dose TCM composition (prepared in Example 1) group and low dose TC′M composition (prepared in Example 1) group, and 8 in each group.
(§3) Female SD rats were treated by bilateral ovariectomy to establish osteoporosis model rats.
(§4) The osteoporosis model rats were subjected to intragastric administration once a day and the administration cycle lasted for 8 weeks.
(§5) After 8 weeks, the rats were sacrificed, and blood was collected from the abdominal aorta and subjected to standing for 1 hour. Then the blood sample was centrifuged to collect serum, which was detected for the bone metabolic biochemical indicators, including bone glaprotein (BGP), bone specific alkaline phosphatase (BALP), carboxyterminal propeptide of type I procollagen (PICP) and N-telopeptides of type I collagen (NTX); estrogen indicators, including serum estradiol E2 and follicle stimulating hormone (FSH); and blood biochemical indexes, including serum phosphorus and serum calcium. […]
(§6) The dosage for rats was calculated as follows: • dosage for rat (daily dose for human/60)*6;

[2] = system: osteoporosis model rats; test: Serum biochemical indexes (phosphorus, calcium) in osteoporosis model rats
Description: as §1, §2, §3, §4
(§7) After 8 weeks, the rats were sacrificed, and blood was collected from the abdominal aorta and subjected to standing for 1 hour. Then the blood sample was centrifuged to collect serum, which was detected for the bone metabolic biochemical indicators, including bone glaprotein (BGP), bone specific alkaline phosphatase (BALP), carboxyterminal propeptide of type I procollagen (PICP) and N-telopeptides of type I collagen (NTX); estrogen indicators, including serum estradiol E2 and follicle stimulating hormone (FSH); and blood biochemical indexes, including serum phosphorus and serum calcium. Moreover, the complete bilateral femurs were collected, on which the muscle tissues were, completely removed. The left femur was used for femoral mechanical testing, and the right femur was tested for related parameters such as bone density. The above experimental data was used to evaluate the efficacy of the TCM composition of the disclosure.
(§8) The dosage of the TCM composition was determined based on the recommended crude drug dosage in the pharmacopoeia, and 1 g of extract was obtained after the extraction.
(§9) Positive control group: 0.1 g/day for human.
(§10) Competing drug group (Caltrate): one tablet (1 g)/day and 600 mg of calcium/tablet.
(§11) High dose TCM composition group: 1 g/day for human; low dose TCM composition group: 0.5 g/day for human.
as §6

[3] = system: osteoporosis model rats; test: Bone metabolic biochemical indicators (BGP, BALP, PICP, NTX) by ELISA in osteoporosis model rats; details: bilateral ovariectomy female SD rats, intragastric once a day, 8 weeks, serum, 10 mg/kg
Description: as §1, §2, §3, §4, §7, §8, §9, §10, §11, §6

[4] = system: osteoporosis model rats; test: Bone density parameters of right femur in osteoporosis model rats; details: bilateral ovariectomy female SD rats, intragastric once a day, 8 weeks, femoral metaphysis, 10 mg/kg
Description: as §1, §2, §3, §4, §7, §8, §9, §10, §11, §6

[5] = system: osteoporosis model rats; test: Femoral mechanical testing (left femur) in osteoporosis model rats; details: bilateral ovariectomy female SD rats, intragastric once a day, 8 weeks, 10 mg/kg
Description: as §1, §2, §3, §4, §5, §6

[6] = bilateral ovariectomy female SD rats, intragastric once a day, 8 weeks, 10 mg/kg

CCCCC(=O)O[C@H]1CC[C@H]2[C@@H]3CCc4cc(O)ccc4[C@H]3CC[C@]12C [Positive control, Estradiol Valerate]
E2 (serum estradiol) [1]: 32.45 ± 10.24 pg/mL | FSH [1]: 96.55 ± 11.84 ng/mL | Ca (serum calcium) [2, 6]: 2.33 ± 0.13 mmol/L | P (serum phosphorus) [2, 6]: 3.1 ± 0.53 mmol/L | serum phosphorus content compared to the model group and the sham-operation group ([2]; positive control group, 8 weeks' administration, P<0.05): significantly higher | BALP (bone specific alkaline phosphatase) [3]: 764.2 ± 123.81 pg/mL | BGP (bone glaprotein) [3]: 9.93 ± 2.23 ng/mL | NTX (N-telopeptides of type I collagen) [3]: 26.92 ± 5.68 ng/mL | PICP (carboxyterminal propeptide of type I procollagen) [3]: 739.33 ± 175.34 ng/mL | BMD (bone mineral density) [4]: 0.198 ± 0.051 g/cm^2 | BV/TV (bone volume fraction) [4]: 16.863 ± 5.237 % | Tb. N (trabecular number) [4]: 2.392 ± 0.809* 1/mm | Tb. Sp (trabecular separation/spacing) [4]: 455.6 ± 182.901 μm | Load (maximum load of femur) [5]: 109.67 ± 26.78 N
